# Measurements reported in patent US20240115557A1, “INHIBITORS OF RNA-GUIDED NUCLEASES AND USES THEREOF” (The Brigham and Women's Hospital, Inc., priority 2022, published 2024).
# How the values were obtained:
# SpCas9 expression = test: Immunoblotting of SpCas9 expression; type: cell-based; details: HEK293T and U2OS.eGFP.PEST, 24 h
# Protocol: Approximately 500,000 U20S.eGFP.PEST cells were nucleofected as described above with 500 ng of SpCas9 plasmid. Then, cells were plated in a 12-well plate with indicated amount of compound, and incubated for 24 h. HEK293T cells were transfected with 500 ng SpCas9 plasmid as described above, and incubated with the compound for 24 h in a 24-well plate. Cells were harvested and lysed by RIPA buffer containing Protease Inhibitor Cocktail (Roche). Lysate was cleared by centrifugation at 20,000 g in 4° C., and the supernatant was taken to measure the protein concentration using BCA assay. Approximately […] of the total protein was used for immunoblotting. Rabbit anti-SpCas9 (Abcam #89380, 1:1,000 dilution) and mouse anti-a-tubulin (CST #3873, 1:2,000 dilution) were used as primary antibodies. IRDye 680RD Donkey anti-Rabbit IgG (LI-COR #925-68073, 1:10,000 dilution) and IRDye 800CW Donkey anti-Mouse IgG (LI-COR #925-32212, 1:10,000 dilution) were used as secondary antibodies.
# SpCas9:gRNA complex = SpCas9:gRNA complex (Streptococcus pyogenes serotype M1, UniProt Q99ZW2); test: STD NMR binding assay; details: 20 μM compound, 5 μM SpCas9:gRNA
# Protocol: All samples were prepared with 20 μM of BRD7586 in a 20 mM […] buffer (pH 7.4) in D2O with or without 5 μM of SpCas9:gRNA in a 3 mm NMR tube. Experiments were performed on a 600 MHz (^19F: 564.71 MHz) Bruker AVANCE III NMR spectrometer equipped with a 5 mm QCI-F CryoProbe and a SampleJet for automated sample handling. To acquire the spectra, a standard one-pulse STD experiment with WALTZ-16 for proton decoupling during acquisition, a 5 s recycle delay, and 256 scans were used. All spectra were recorded at 280 K. NMR data were apodized with a 1-Hz exponential function prior to Fourier transformation. All spectra were baseline corrected, and peak widths and intensities were extracted using the automated line-fitting feature provided with the MNova software package.
# LbCas12a = test: eGFP disruption assay, LbCas12a RNP; type: cell-based; details: RNP delivery, U2OS.eGFP.PEST, 24 h
# SpCas9 = SpCas9 (Streptococcus pyogenes serotype M1, UniProt Q99ZW2); test: Targeted deep sequencing of indels (eGFP, EMX1, FANCF, VEGFA); type: cell-based
# Protocol: U2OS.eGFP.PEST cells were nucleofected as described above for the eGFP disruption assay, plated in a 24-well plate at the density of 150,000 cells per well, and incubated with BRD7586 for 24 h. Then, the genomic DNA was extracted using DNeasy Blood & Tissue Kit (Qiagen). HEK293T cells were plated in a 24-well plate at the density of 100,000 cells per well. The next day, cells were transfected with 500 ng of SpCas9 plasmid and 250 ng of EMX1-, VEGFA-, or FANCF-targeting gRNA plasmid using Lipofectamine 3000 (Invitrogen). Indicated amount of compound was added at the time of transfection, cells were incubated for 24 h or 48 h, and genomic DNA was extracted. Next-generation sequencing (NGS) samples were prepared using a two-step PCR protocol. NGS libraries were quantified using KAPA Library Quantification Kit (Roche) and diluted to 4 nM. Sequencing of the pooled library was performed using MiSeq Reagent Kit v2 (Illumina). The percentage of indel in the demultiplexed sequence files was analyzed using the CRISPResso2 software from the Pinello Lab.^49
# [1] = target: SpCas9:gRNA complex and DNA (Streptococcus pyogenes serotype M1, UniProt Q99ZW2); test: Fluorescence polarization SpCas9:PAM DNA interaction assay; type: binding
# Description: The fluorescence Polarization-based Assay may monitor the change in the fluorescence polarization of the fluorophore-labelled PAM-rich target DNA (e.g., a 12PAM-DNA) upon binding to [Cas9:guideRNA] complex.
# Fluorescence polarization is a useful technique to monitor the interaction between two molecules, including for example, Cas9-gRNA (ribonucleoprotein) complex and target DNA (e.g., 12PAM).
# Fluorescence polarization may be used to measure the binding constants and kinetics of reactions that cause a change in the rotational time of the molecules. The technique is based on the change in the tumbling rate or mass after complexation. […] The degree of binding is calculated by using the difference in anisotropy of the partially bound, free and fully bound (large excess of protein) states measured by titrating the two binding partners. […]
# Development of cumulative activity assay (CAA) for SpCas9. Applicants previously reported an assay that uses fluorescence polarization (FP) to monitor the binding between a fluorophore-labeled poly-PAM DNA oligonucleotide and SpCas9 charged with a non-targeting gRNA.^17 This assay permitted screening for small molecules that interfered with the early steps of the SpCas9 catalytic mechanism, namely, binding of SpCas9 and the relatively low-affinity NGG PAM DNA sequence. […]
# Sequence of SpCas9 (Q99ZW2 whole entry): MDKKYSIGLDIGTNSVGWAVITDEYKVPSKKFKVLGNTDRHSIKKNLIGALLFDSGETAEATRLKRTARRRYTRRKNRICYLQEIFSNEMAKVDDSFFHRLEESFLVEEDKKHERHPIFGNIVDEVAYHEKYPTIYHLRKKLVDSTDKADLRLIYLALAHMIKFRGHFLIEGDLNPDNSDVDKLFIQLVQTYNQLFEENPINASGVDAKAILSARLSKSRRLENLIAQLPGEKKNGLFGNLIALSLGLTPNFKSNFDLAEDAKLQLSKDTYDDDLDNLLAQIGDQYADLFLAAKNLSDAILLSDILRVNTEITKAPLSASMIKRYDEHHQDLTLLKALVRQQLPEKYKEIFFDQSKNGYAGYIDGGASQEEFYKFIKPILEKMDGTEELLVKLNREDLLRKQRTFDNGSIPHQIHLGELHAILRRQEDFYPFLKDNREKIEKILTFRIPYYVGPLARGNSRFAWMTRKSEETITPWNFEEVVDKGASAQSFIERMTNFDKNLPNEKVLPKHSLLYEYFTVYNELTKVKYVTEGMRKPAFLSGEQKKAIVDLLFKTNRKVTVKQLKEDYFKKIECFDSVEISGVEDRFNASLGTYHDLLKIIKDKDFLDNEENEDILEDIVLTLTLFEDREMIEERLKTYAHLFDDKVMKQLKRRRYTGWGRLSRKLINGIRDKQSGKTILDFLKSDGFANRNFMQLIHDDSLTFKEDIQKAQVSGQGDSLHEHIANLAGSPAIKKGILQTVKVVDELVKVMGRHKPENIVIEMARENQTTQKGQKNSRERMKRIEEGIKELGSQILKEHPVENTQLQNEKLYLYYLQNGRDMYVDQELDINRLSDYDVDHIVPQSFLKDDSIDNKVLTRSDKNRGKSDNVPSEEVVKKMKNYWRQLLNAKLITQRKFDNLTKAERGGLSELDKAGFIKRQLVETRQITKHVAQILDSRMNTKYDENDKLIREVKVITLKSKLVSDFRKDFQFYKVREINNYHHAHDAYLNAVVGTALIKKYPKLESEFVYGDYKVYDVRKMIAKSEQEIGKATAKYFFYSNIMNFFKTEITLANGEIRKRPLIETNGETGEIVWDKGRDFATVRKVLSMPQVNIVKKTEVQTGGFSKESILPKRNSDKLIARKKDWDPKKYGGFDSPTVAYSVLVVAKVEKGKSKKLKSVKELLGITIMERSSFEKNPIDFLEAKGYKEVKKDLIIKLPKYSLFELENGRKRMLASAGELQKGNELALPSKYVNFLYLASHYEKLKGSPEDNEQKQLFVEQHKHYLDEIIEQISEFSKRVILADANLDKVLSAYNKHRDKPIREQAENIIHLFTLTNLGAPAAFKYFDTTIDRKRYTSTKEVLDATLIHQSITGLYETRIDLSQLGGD
# Sequence of SpCas9:gRNA complex and DNA (Q99ZW2 whole entry, one chain of several): as the sequence (Q99ZW2 whole entry) above
# Sequence of SpCas9:gRNA complex (Q99ZW2 whole entry, one chain of several): as the sequence (Q99ZW2 whole entry) above
smiles,measurement,setting,value
O=C(CCS(=O)(=O)c1ccc(Cl)cc1)Nc1nc(-c2ccncc2)cs1 [BRD7586],Effect on SpCas9 expression,SpCas9 expression,without altering its expression
same,STD NMR signal,SpCas9:gRNA complex,observed the STD NMR signal from marked protons
same,Effect on activity of LbCas12a,LbCas12a,did not affect the activity
same,Specificity of SpCas9 (on-target versus off-target ratio),"SpCas9; HEK293T, EMX1, FANCF or VEGFA, 48 h",enhanced the specificity of SpCas9
same,Inhibition of indel activity by next-generation sequencing,SpCas9; multiple genomic loci,inhibited the indel activity of SpCas9 at multiple genomic loci
same,Inhibition of binding between SpCas9:gRNA complex and DNA,[1],does not inhibit the binding
